ChEMBL document CHEMBL3885881, “DrugMatrix”

Organism: Rattus norvegicus
Test: DrugMatrix - Regimen: Daily Repeat
Assay type: toxicity, organism-based, Sprague-Dawley
Set-up: regimen Daily Repeat, gender Male, age 6-8 weeks
Conditions: in vivo, po, route oral GAVAGE, vehicle 100 % WATER; for ABSOLUTE BASOPHIL / ABSOLUTE EOSINOPHIL / ABSOLUTE LYMPHOCYTE / ABSOLUTE MONOCYTE / ABSOLUTE SEGMENTED NEUTROPHIL / BASOPHIL / EOSINOPHIL / ERYTHROCYTE COUNT / HEMATOCRIT / HEMOGLOBIN / LEUKOCYTE COUNT / LYMPHOCYTE / MEAN CORPUSCULAR HEMOGLOBIN / MEAN CORPUSCULAR HEMOGLOBIN CONCENTRATION / MEAN CORPUSCULAR VOLUME / MONOCYTE / NEUTROPHIL / NUCLEATED RED BLOOD CELLS / PLATELET COUNT: tissue Blood; for ALANINE AMINOTRANSFERASE / ALBUMIN / ALKALINE PHOSPHATASE / ASPARTATE AMINOTRANSFERASE / BLOOD UREA NITROGEN / CARBON DIOXIDE / CHLORIDE / CHOLESTEROL / CREATINE PHOSPHOKINASE / CREATININE / GLUCOSE / LACTATE DEHYDROGENASE / LIPASE / PHOSPHORUS / POTASSIUM / SODIUM / TOTAL BILIRUBIN / TOTAL PROTEIN / URIC ACID: tissue Plasma
[1] = 200 mg/kg, 120 h, dose level Low, time 5 day
[2] = 2000 mg/kg, 72 h, dose level High, time 3 day
[3] = 2000 mg/kg, 120 h, dose level High, time 5 day

CC(O)CO (centres undefined) [PROPYLENE GLYCOL]
ABSOLUTE BASOPHIL [1]: 0 CELLS/uL
ABSOLUTE EOSINOPHIL [1]: 0 CELLS/uL
ABSOLUTE LYMPHOCYTE [1]: 15454 CELLS/uL
ABSOLUTE MONOCYTE [1]: 284.33 CELLS/uL
ABSOLUTE SEGMENTED NEUTROPHIL [1]: 1261.67 CELLS/uL
BASOPHIL [1]: 0%
EOSINOPHIL [1]: 0%
ERYTHROCYTE COUNT [1]: 5.7 x10E6/uL
HEMATOCRIT [1]: 35.5%
HEMOGLOBIN [1]: 14.1 G/DL
LEUKOCYTE COUNT [1]: 17 x10E3/uL
LYMPHOCYTE [1]: 91%
MEAN CORPUSCULAR HEMOGLOBIN [1]: 24.83 pg
MEAN CORPUSCULAR HEMOGLOBIN CONCENTRATION [1]: 39.73 G/DL
MEAN CORPUSCULAR VOLUME [1]: 62.37 fL
MONOCYTE [1]: 1.67%
NEUTROPHIL [1]: 7.33%
NUCLEATED RED BLOOD CELLS [1]: 0 /100WBC
PLATELET COUNT [1]: 1288 x10E3/uL
ALANINE AMINOTRANSFERASE [1]: 49.33 u/L
ALBUMIN [1]: 4.37 G/DL
ALKALINE PHOSPHATASE [1]: 314.33 u/L
ASPARTATE AMINOTRANSFERASE [1]: 76.33 u/L
BLOOD UREA NITROGEN [1]: 18 mg/dL
CARBON DIOXIDE [1]: 25.33 mmol/L
CHLORIDE [1]: 101 MEQ/L
CHOLESTEROL [1]: 73 mg/dL
CREATINE PHOSPHOKINASE [1]: 227.67 u/L
CREATININE [1]: 0.16 mg/dL
GLUCOSE [1]: 165.67 mg/dL
LACTATE DEHYDROGENASE [1]: 181.67 u/L
LIPASE [1]: 8.33 u/L
PHOSPHORUS [1]: 12.87 mg/dL
POTASSIUM [1]: 6.99 MEQ/L
SODIUM [1]: 143.7 MEQ/L
TOTAL BILIRUBIN [1]: 0.23 mg/dL
TOTAL PROTEIN [1]: 6.03 G/DL
URIC ACID [1]: 2.13 mg/dL
ABSOLUTE BASOPHIL [2]: 0 CELLS/uL
ABSOLUTE EOSINOPHIL [2]: 0 CELLS/uL
ABSOLUTE LYMPHOCYTE [2]: 11801.33 CELLS/uL
ABSOLUTE MONOCYTE [2]: 112 CELLS/uL
ABSOLUTE SEGMENTED NEUTROPHIL [2]: 1053.33 CELLS/uL
BASOPHIL [2]: 0%
EOSINOPHIL [2]: 0%
ERYTHROCYTE COUNT [2]: 5.54 x10E6/uL
HEMATOCRIT [2]: 34.73%
HEMOGLOBIN [2]: 13.73 G/DL
LEUKOCYTE COUNT [2]: 12.97 x10E3/uL
LYMPHOCYTE [2]: 90.33%
MEAN CORPUSCULAR HEMOGLOBIN [2]: 24.8 pg
MEAN CORPUSCULAR HEMOGLOBIN CONCENTRATION [2]: 39.53 G/DL
MEAN CORPUSCULAR VOLUME [2]: 62.77 fL
MONOCYTE [2]: 1%
NEUTROPHIL [2]: 8.67%
NUCLEATED RED BLOOD CELLS [2]: 0 /100WBC
PLATELET COUNT [2]: 1166 x10E3/uL
ALANINE AMINOTRANSFERASE [2]: 53.33 u/L
ALBUMIN [2]: 4.3 G/DL
ALKALINE PHOSPHATASE [2]: 390 u/L
ASPARTATE AMINOTRANSFERASE [2]: 82 u/L
BLOOD UREA NITROGEN [2]: 14.33 mg/dL
CARBON DIOXIDE [2]: 23 mmol/L
CHLORIDE [2]: 100.67 MEQ/L
CHOLESTEROL [2]: 65.33 mg/dL
CREATINE PHOSPHOKINASE [2]: 195 u/L
CREATININE [2]: 0.18 mg/dL
GLUCOSE [2]: 154.67 mg/dL
LACTATE DEHYDROGENASE [2]: 119.33 u/L
LIPASE [2]: 10.67 u/L
PHOSPHORUS [2]: 12.87 mg/dL
POTASSIUM [2]: 6.42 MEQ/L
SODIUM [2]: 143.1 MEQ/L
TOTAL BILIRUBIN [2]: 0.17 mg/dL
TOTAL PROTEIN [2]: 5.93 G/DL
URIC ACID [2]: 1.53 mg/dL
ABSOLUTE BASOPHIL [3]: 0 CELLS/uL
ABSOLUTE EOSINOPHIL [3]: 46 CELLS/uL
ABSOLUTE LYMPHOCYTE [3]: 14960.67 CELLS/uL
ABSOLUTE MONOCYTE [3]: 42.67 CELLS/uL
ABSOLUTE SEGMENTED NEUTROPHIL [3]: 1217.33 CELLS/uL
BASOPHIL [3]: 0%
EOSINOPHIL [3]: 0.33%
ERYTHROCYTE COUNT [3]: 5.65 x10E6/uL
HEMATOCRIT [3]: 35.27%
HEMOGLOBIN [3]: 14 G/DL
LEUKOCYTE COUNT [3]: 16.27 x10E3/uL
LYMPHOCYTE [3]: 91.67%
MEAN CORPUSCULAR HEMOGLOBIN [3]: 24.83 pg
MEAN CORPUSCULAR HEMOGLOBIN CONCENTRATION [3]: 39.7 G/DL
MEAN CORPUSCULAR VOLUME [3]: 62.5 fL
MONOCYTE [3]: 0.33%
NEUTROPHIL [3]: 7.67%
NUCLEATED RED BLOOD CELLS [3]: 0 /100WBC
PLATELET COUNT [3]: 1315.33 x10E3/uL
ALANINE AMINOTRANSFERASE [3]: 52 u/L
ALBUMIN [3]: 4.3 G/DL
ALKALINE PHOSPHATASE [3]: 327.33 u/L
ASPARTATE AMINOTRANSFERASE [3]: 76.67 u/L
BLOOD UREA NITROGEN [3]: 17.33 mg/dL
CARBON DIOXIDE [3]: 27 mmol/L
CHLORIDE [3]: 102 MEQ/L
CHOLESTEROL [3]: 69 mg/dL
CREATINE PHOSPHOKINASE [3]: 218 u/L
CREATININE [3]: 0.16 mg/dL
GLUCOSE [3]: 159.33 mg/dL
LACTATE DEHYDROGENASE [3]: 121 u/L
LIPASE [3]: 8.67 u/L
PHOSPHORUS [3]: 12.4 mg/dL
POTASSIUM [3]: 5.9 MEQ/L
SODIUM [3]: 144.67 MEQ/L
TOTAL BILIRUBIN [3]: 0.17 mg/dL
TOTAL PROTEIN [3]: 6.07 G/DL
URIC ACID [3]: 1.43 mg/dL
